Patent US9168286B2, “Methods and compositions for use in treatment of patients with autoantibody positive disease” (Human Genome Sciences, Inc., priority 2005, dated 2015)

Legend:
[1] = test system: B cells; experiment: B cell survival assay; type: cell-based, mouse; details: Pim-1−/−2−/− B cells, 100 ng/ml rhuNeutrokine-alpha, 4 days
From the text: Mice: Pim-1^+/+2^+/+, Pim-1^−/−2^+/+, Pim-1^+/+2^−/− and Pim-1^−/−2^−/− mice were generated from Pim-1^+/−2^+/− stock of Paul Rothman Columbia University, New York, N.Y. C57BL/6 (B6) mice were from The Jackson Laboratory, Bar Harbor Me. or from the National Cancer Institute Production Program, NCI-Fredrick, Fredrick Md. Animals were bred and maintained at the Univ. of Pennsylvania, Harvard Medical School, or the Univ. of Massachusetts Medical School in accordance with Institutional Animal Care and Use Committee guidelines.
B cell purification: Splenic B cells were obtained by anti-thy1.2 and complement treatment of splenocytes followed by purification of resting B cells using a step wise percoll gradient and harvesting cells at the 60-70% interface. […]
Survival assays: B cells at 5×10^6/ml were cultured in 24-well tissue culture dishes in CM at 37° C. […] Survival was monitored daily by counting viable cells using trypan blue exclusion with each determination done in triplicate.
Rapamycin is a potent inhibitor of mTOR and a potent suppressor of B cell proliferation and differentiation. […] Viable cells were determined at day 4. […]

[2] = test system: Akt/mTOR pathway; experiment: Western blotting of Akt/mTOR pathway phosphorylation in B cells; type: cell-based, mouse
Description: Cell cultures: Purified B cells or CD23′ B cells were cultured in RPMI-1640 supplemented with 2-mercaptoethanol, MEM-non-essential amino acids, glutamine, penicillin and streptomycin (complete media, CM). For B cell survival and other assays recombinant human Neutrokine-alpha made at Human Genome Sciences, Rockville Md. was used at 50-100 ng/ml. FLAG-tagged human Neutrokine-alpha was from Dr. Randolph Noelle, Dartmouth Medical School. Murine Neutrokine-alpha was purchased from Alexis Biochemicals, San Diego Calif. and human interferon alpha (IFNα) from PBL Biomedical, Piscataway, N.J. Rapamycin was used at a final concentration of 50 nM, added to cultures from a stock dissolve in methanol. Control B cells in experiments using rapamycin were treated with methanol as a vehicle control. For kinetic assays B cells were prepared and refrigerated overnight at 4° C. 5-6×10^6 purified B cells per sample were spun onto 24-well plates that had been coated with 5 ug/ml monoclonal anti-FLAG M2 antibody (Sigma), washed, blocked with 1% BSA in PBS, followed by the addition of FLAG-tagged human Neutrokine-alpha 2 ug/well an hour prior to washing and cell addition. Unstimulated control B cells were those spun onto wells treated with anti-FLAG antibody alone. B cells were also activated by incubation with anti-murine IgM (5 ug/ml), anti-CD40 (0.5 ug/ml) or 100 ng/ml of recombinant human Neutrokine-alpha added to kinetic assay buffer (Hank's balanced salt solution plus 2% BSA).
Antibodies and Western Blotting: Mouse anti-Pim 2 (1D12), Pim 1 (19F7), goat anti-actin (1-19), anti-mouse Ig, anti-rabbit Ig and anti-goat Ig coupled to HRP were obtained from Santa Cruz Biotechnology, Santa Cruz Calif. […] Rabbit anti-mouse Mcl-1 was purchased from Rockland, Wilmington Mass. […]
Purified B cells were stimulated for the 0, 5, 20, 60 or 120 minutes with 100 ng/ml recombinant human or murine Neutrokine-alpha or anti-Ig (positive control) at 37° C. in pregassed medium. Lysates were prepared from iced samples and analyzed by Western Blot. […]

[3] = test system: Pim1 and Pim 2; experiment: Western blot of Pim1 and Pim 2 expression in primary B cells; type: cell-based, mouse; details: 2 days, 100 ng/ml rhuNeutrokine-alpha
Description: Antibodies and Western Blotting: Mouse anti-Pim 2 (1D12), Pim 1 (19F7), goat anti-actin (1-19), anti-mouse Ig, anti-rabbit Ig and anti-goat Ig coupled to HRP were obtained from Santa Cruz Biotechnology, Santa Cruz Calif. […] Rabbit anti-mouse Mcl-1 was purchased from Rockland, Wilmington Mass. Whole cell lysates were prepared by washing B cells in ice cold PBS and lysing in RIPA (150 mM NaCl, 1% NP-40, 0.5% sodium deoxycholate, 0.1% SDS, 50 mM Tris pH8.0) supplemented with protease inhibitors (minitab, Roche, Indianapolis Ind.) and phosphatase inhibitor cocktails I and II (Sigma). 10-50 ug of protein was resolved on 4-12% NuPage bis-tris polyacrylamide gels (Invitrogen, Carlsbad Calif.) and transferred to nitrocellulose. Blots were blocked with 3% BSA (Sigma, IgG free), 0.2% Tween-20 in PBS and incubated with primary antibody in the same buffer overnight at 4° C. Blots were washed with PBS-0.2% Tween-20, incubated with secondary antibody conjugated with HRP and developed using ECLplus (Amersham Bioscience, Piscataway N.J.). Blots were stripped for reprobing by incubation for 20 minutes at 65° C. in PBS supplemented with 1% SDS and […] β-mercaptoethanol. Blots were then washed and blocked as above. […]

[4] = test system: Neutrokine-alpha in monocytes and macrophages; experiment: Neutrokine-alpha expression in cytokine-treated monocytes and macrophages; type: cell-based; details: in vitro
[5] = test system: B cell; experiment: Neutrokine-alpha mediated B cell proliferation with cytokines; type: cell-based
Description: In an additional embodiment, an immunomodulatory agent is administered in combination with cytokines. Cytokines that may be administered with an immunomodulatory agent include, but are not limited to, GM-CSF, G-CSF, IL2, IL3, IL4, IL5, IL6, IL7, IL10, IL12, IL13, IL15, anti-CD40, CD40L, IFN-alpha, IFN-beta, IFN-gamma, TNF-alpha, and TNF-beta. In another embodiment, an immunomodulatory agent may be administered with any interleukin, including but not limited to, IL-1alpha, IL-1beta, IL-2, IL-3, IL-4, IL-5, IL-6, IL-7, IL-8, IL-9, IL-10, IL-11, IL-12, IL-13, IL-14, IL-15, IL-16, IL-17, IL-18, IL-19, IL-20, IL-21, and IL-22. In preferred embodiments, an immunomodulatory agent is administered in combination with IL4 and IL10. Both IL4 and IL10 have been observed by the inventors to enhance Neutrokine-alpha mediated B cell proliferation.

| Molecule | B cell survival [1] | mTOR activation (phosphorylation of p70 S6 kinase and 4E-BP1) ([2]; primary B cells) | Akt phosphorylation (serine 473 and threonine 308) ([2]; primary B cells, 100 ng/ml, 0-120 minutes) | phosphorylation of GSKβ, FOXO1 and FOXO3a ([2]; purified B cells, plate bound FLAG-tagged or soluble (100 ng/ml) Neutrokine-alpha) | Pim1 and Pim 2 expression [3] | cell surface expression of Neutrokine-alpha [4] | Neutrokine-alpha mediated B cell proliferation [5] |
| --- | --- | --- | --- | --- | --- | --- | --- |
| Neutrokine-alpha: recombinant human Neutrokine-alpha made at Human Genome Sciences; member of the TNF family of ligands | enhanced survival | activation of mTOR | activation of the Akt pathway | phosphorylation of the Akt substrates | upregulate | – | – |
| IL-10: cytokine (protein, UniProt P22301 19-178, looked up) Interleukin-10: SPGQGTQSENSCTHFPGNLPNMLRDLRDAFSRVKTFFQMKDQLDNLLLKESLLEDFKGYLGCQALSEMIQFYLEEVMPQAENQDPDIKAHVNSLGENLKTLRLRLRRCHRFLPCENKSKAVEQVKNAFNKLQEKGIYKAMSEFDIFINYIEAYMTMKIRN | – | – | – | – | – | enhance | enhance |
| IFN gamma: cytokine (protein, UniProt P01579 24-161, looked up) Interferon gamma: QDPYVKEAENLKKYFNAGHSDVADNGTLFLGILKNWKEESDRKIMQSQIVSFYFKLFKNFKDDQSIQKSVETIKEDMNVKFFNSNKKKRDDFEKLTNYSVTDLNVQRKAIHELIQVMAELSPAAKTGKRKRSQMLFRG | – | – | – | – | – | enhance | – |
| IL-4: cytokine (protein, UniProt P05112 25-153, looked up) Interleukin-4: HKCDITLQEIIKTLNSLTEQKTLCTELTVTDIFAASKNTTEKETFCRAATVLRQFYSHHEKDTRCLGATAQQFHRHKQLIRFLKRLDRNLWGLAGLNSCPVKEANQSTLENFLERLKTIMREKYSKCSS | – | – | – | – | – | decreased | enhance |
